Measurements published in patent US11970576B2, “Beta-peptido sugar-copolymer” (NANYANG TECHNOLOGICAL UNIVERSITY, priority 2017, dated 2024).
≈ marks a conversion by molar mass, not a printed value. Where a SMILES comes first, the peptide text is derived from it.

How the values were obtained:
[1] = tested on: methicillin-resistant S. aureus (BAA-40); type: cell-based
Method: (§1) Antimicrobial activity of block-like copolymers PDGu(x)-b-PBLK(y) against a panel of bacteria including both Gram-positive (S. aureus and B. subtilis) and Gram-negative (E. coli) in terms of minimal inhibition concentration (MIC) were tested. […] The activity was decreased with the increase of sugar ratio. This is reasonable when considering the killing domains became less.

S. aureus (ATCC 29213) = type: cell-based
Method: as §1

E. coli (ATCC 8739) = type: cell-based
Method: as §1

human red blood cells = assay: Erythrocyte compatibility assay (hemolysis)
Method: Toxicity towards mammalian cells was another vital factor for bio-applications. […] Erythrocyte compatibility assay calculating the lysis of human red blood cells (HC10, concentration of polymers causing 10% human red blood cells lysed) was performed to characterize the in vitro biocompatibility.

MRSA USA300 = assay: In vivo murine excision wound model; design: species or system Staphylococcus aureus
Source text: Staphylococcus aureus is the most common cause for skin and soft tissue infections (SSTIs). Among those, up to three quarter are caused by community-associated MRSA (CA-MRSA). MRSA USA300 is a significant CA-MRSA pathogen in the US. According to Centers for Disease Control and Prevention of US, 212 out of 218 MRSA isolates were type USA300. To further test the in vivo efficacy of PDGu(10)-b-PBLK(10) against the clinically significant pathogen MRSA USA300, a mice wound excision model was adopted using 8 weeks female C57BL6 mice. […] This could be attributed to the excellent antibacterial efficacy of the β-peptido sugar-copolymer in vivo.
The in vivo efficacy of PDGu(10)-b-PBLK(10) was further tested against MRSA USA 300 with a murine excision wound model using two infection durations with treatments applied either 4 hour or 24 hour post infection. For treatment applied 4 hour post infection, the β-peptido sugar-copolymer achieves a log reduction of 4.1 (FIG. 8a), which is slightly better than vancomycin, which has a log reduction of 3.7. […] In contrast, vancomycin treatment only achieves 2.0 log reduction of the bacteria burden at the wound site (p≤0.01). The excellent in vivo antibacterial efficacy of PDGu(10)-b-PBLK(10) may be correlated to its outstanding in vitro killing kinetics and anti-biofilm bacteria property.
Female C57BL6 mice (Invivos, Singapore) aged 8 weeks were used for excision wound model to evaluate in vivo antimicrobial efficacy of the β-peptido sugar-copolymer. All mice were housed on a 12 hour light-dark cycle at room temperature for one week prior to the experiment. Mice (n=7 per group) were anesthetized using isoflurane and hair from the back was removed with a shaver and sterile scalpel blade. The shaved area was further sterilized using 70% ethanol and a 5 mm diameter excision wound was created using a biopsy punch. In t=4 hour post infection model, 2.5 μL MRSA USA300 in PBS suspension (5×10^5 CFU/mL) was added to wound site and covered by Tegaderm (3M™) to protect from contamination. […]

Compound	MIC MRSA [1] [mg/L]	MIC SA 29213 (S. aureus (ATCC 29213)) [mg/L]	MIC E. coli (E. coli (ATCC 8739)) [mg/L]	HC10 RBC (concentration causing 10% human red blood cells lysed) (human red blood cells) [µg/mL]	in vivo activity compared with the β-peptido sugar-copolymer (MRSA USA300; mice wound excision model, MRSA USA300)	log reduction of MRSA USA300 (MRSA USA300; treatment applied 4 hour post infection, single dose 2.5 mg/kg (FIG. 8a)) [log]	log reduction of total bacteria count (MRSA USA300; treatment initiated 24 hour post infection, three times with 4-hour interval, 2.5 mg/kg (FIG. 8b)) [log]
CC[C@H](C)[C@H](NC(=O)[C@H](CCCCN)NC(=O)[C@H](CCC(=O)O)NC(=O)[C@H](CCCCN)NC(=O)[C@H](CO)NC(=O)[C@H](CCCCN)NC(=O)[C@H](CCCNC(=N)N)NC(=O)[C@H](Cc1ccccc1)NC(=O)[C@H](Cc1ccccc1)NC(=O)[C@H](CC(=O)O)NC(=O)CNC(=O)[C@H](CC(C)C)NC(=O)[C@@H](N)CC(C)C)C(=O)NCC(=O)N[C@@H](CCCCN)C(=O)N[C@@H](CCC(=O)O)C(=O)N[C@@H](Cc1ccccc1)C(=O)N[C@@H](CCCCN)C(=O)N[C@@H](CCCNC(=N)N)C(=O)N[C@H](C(=O)N[C@H](C(=O)N[C@@H](CCC(N)=O)C(=O)N[C@@H](CCCNC(=N)N)C(=O)N[C@H](C(=O)N[C@@H](CCCCN)C(=O)N[C@@H](CC(=O)O)C(=O)N[C@@H](Cc1ccccc1)C(=O)N[C@@H](CC(C)C)C(=O)N[C@@H](CCCNC(=N)N)C(=O)N[C@@H](CC(N)=O)C(=O)N[C@@H](CC(C)C)C(=O)N[C@H](C(=O)N1CCC[C@H]1C(=O)N[C@@H](CCCNC(=N)N)C(=O)N[C@H](C(=O)N[C@@H](CCC(=O)O)C(=O)N[C@@H](CO)C(=O)O)[C@@H](C)O)C(C)C)[C@@H](C)CC)C(C)C)[C@@H](C)CC [LL37]	>512	–	–	–	–	–	–
CC[C@H](C)[C@H](NC(=O)CN)C(=O)NCC(=O)N[C@@H](CCCCN)C(=O)N[C@@H](Cc1ccccc1)C(=O)N[C@@H](CC(C)C)C(=O)N[C@@H](Cc1c[nH]cn1)C(=O)N[C@@H](CO)C(=O)N[C@@H](C)C(=O)N[C@@H](CCCCN)C(=O)N[C@@H](CCCCN)C(=O)N[C@@H](Cc1ccccc1)C(=O)NCC(=O)N[C@@H](CCCCN)C(=O)N[C@@H](C)C(=O)N[C@@H](Cc1ccccc1)C(=O)N[C@H](C(=O)NCC(=O)N[C@@H](CCC(=O)O)C(=O)N[C@H](C(=O)N[C@@H](CCSC)C(=O)N[C@@H](CC(N)=O)C(=O)N[C@@H](CO)C(=O)O)[C@@H](C)CC)C(C)C [Magainin 2] (H-GIGKFLHSAKKFGKAFVGEIMNS-OH)	>512	>512	64 (≈ 25.9 µM)	>500	–	–	–
CC[C@H](C)[C@H](NC(=O)CN)C(=O)NCC(=O)N[C@@H](C)C(=O)N[C@H](C(=O)N[C@@H](CC(C)C)C(=O)N[C@@H](CCCCN)C(=O)N[C@H](C(=O)N[C@@H](CC(C)C)C(=O)N[C@H](C(=O)N[C@H](C(=O)NCC(=O)N[C@@H](CC(C)C)C(=O)N1CCC[C@H]1C(=O)N[C@@H](C)C(=O)N[C@@H](CC(C)C)C(=O)N[C@H](C(=O)N[C@@H](CO)C(=O)N[C@@H](Cc1c[nH]c2ccccc12)C(=O)N[C@H](C(=O)N[C@@H](CCCCN)C(=O)N[C@@H](CCCNC(=N)N)C(=O)N[C@@H](CCCCN)C(=O)N[C@@H](CCCNC(=N)N)C(=O)N[C@@H](CCC(N)=O)C(=O)N[C@@H](CCC(N)=O)C(N)=O)[C@@H](C)CC)[C@@H](C)CC)[C@@H](C)O)[C@@H](C)O)C(C)C)C(C)C [Melittin]	–	–	–	8	–	–	–
CN[C@H](CC(C)C)C(=O)N[C@H]1C(=O)N[C@@H](CC(N)=O)C(=O)N[C@H]2C(=O)N[C@H]3C(=O)N[C@H](C(=O)N[C@H](C(=O)O)c4cc(O)cc(O)c4-c4cc3ccc4O)[C@H](O)c3ccc(c(Cl)c3)Oc3cc2cc(c3O[C@@H]2O[C@H](CO)[C@@H](O)[C@H](O)[C@H]2O[C@H]2C[C@](C)(N)[C@H](O)[C@H](C)O2)Oc2ccc(cc2Cl)[C@H]1O [vancomycin]	–	–	–	–	does not show superior activity	3.7	2.0
Polymyxin B	64	32	2	>2500	–	–	–
